Measurements published in the supplement of paper PMC10307832.

Experiments:
Experiment in all cases: relative viability (nuclei count vs DMSO), 5 days (fraction); higher = more cells survive
[1] = compound: O=C(/C=C/c1cccnc1)NCCCCC1CCN(C(=O)c2ccccc2)CC1 [Daporinad] + CS(=O)(=O)CCNCc1ccc(-c2ccc3ncnc(Nc4ccc(OCc5cccc(F)c5)c(Cl)c4)c3c2)o1 [Lapatinib] (partner 2 µM)
Method in brief: (§1)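 Values are medians from duplicate plates. Each reflects relative viability, defined as the nuclei count of treated wells over that of vehicle wells. Lung cancer cell lines in 1536-well plates were pin-tool dosed one day after seeding with one drug alone or with a fixed anchor-drug dose plus five library-drug doses (not always all listed) in √10 steps, then fixed, stained and imaged at 4× after 5 days.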

[2] = compound: O=C(/C=C/c1cccnc1)NCCCCC1CCN(C(=O)c2ccccc2)CC1 [Daporinad] + NC(=O)Nc1cc(-c2cccc(F)c2)sc1C(=O)N[C@H]1CCCNC1 [AZD7762] (partner 0.2 µM)
Method in brief: as §1

[3] = compound: COc1cc(Nc2ncc(F)c(Nc3ccc4c(n3)NC(=O)C(C)(C)O4)n2)cc(OC)c1OC [R406] + COc1cccc2cc(-c3nc([C@H]4CC[C@H](C(=O)O)CC4)n4ncnc(N)c34)[nH]c12 [OSI-027] (partner 0.5 µM)
Method in brief: as §1

[4] = compound: O=C(/C=C/c1cccnc1)NCCCCC1CCN(C(=O)c2ccccc2)CC1 [Daporinad] + CCNC(=O)c1noc(-c2cc(C(C)C)c(O)cc2O)c1-c1ccc(CN2CCOCC2)cc1 [Luminespib] (partner 0.01 µM)
Method in brief: as §1

Cell Line	relative viability ([1]; first compound 0.0005 µM)	relative viability ([1]; first compound 0.001581 µM)	relative viability ([1]; first compound 0.005 µM)	relative viability ([1]; first compound 0.01581 µM)	relative viability ([2]; first compound 0.0005 µM)	relative viability ([2]; first compound 0.001581 µM)	relative viability ([2]; first compound 0.005 µM)	relative viability ([2]; first compound 0.01581 µM)	relative viability ([3]; first compound 0.08 µM)	relative viability ([3]; first compound 0.253 µM)	relative viability ([3]; first compound 0.8 µM)	relative viability ([3]; first compound 2.53 µM)	relative viability ([3]; first compound 8 µM)	relative viability ([4]; first compound 0.001581 µM)	relative viability ([4]; first compound 0.005 µM)	relative viability ([4]; first compound 0.01581 µM)	relative viability ([4]; first compound 0.0005 µM)
Calu-6	1.06	0.959	0.863	0.413													
NCI-H1792	0.837	0.987	0.838	0.932	0.55	0.702	0.756	0.955	0.642	0.772	0.784	0.37	0.378	0.443	0.347	0.604	
NCI-H2170	0.285	0.263	0.274	0.276	0.807	0.974	0.979	0.92	0.734	0.654	0.688	0.415	0.648	0.722	0.417	0.734	0.817
NCI-H1650	0.792	0.922	0.95	0.875					0.719	0.644	0.637	0.132	0.137	0.182	0.182	0.196	0.187
NCI-H2087	0.99	0.979	1.18	1.14	1.21	1.41	1.37	1.17	0.44	0.597	0.658		0.499	0.177	0.154	0.159	0.178
HCC-366	1.06	1.02	1.08	1.02	0.255		0.247	0.268	0.938	1.02	1.04	0.0426	0.117				
NCI-H838	0.998	1.31	0.966	0.5	1.02	1.02	0.894	0.837	0.407	0.472	0.368	0.326	0.167	0.332	0.343	0.29	0.288
HCC-78	0.749	0.705	0.854	1.18	0.6	0.626	0.53	0.796	0.335	0.385	0.397	0.386	0.323				
EBC-1	0.238	0.216	0.206	0.17													
NCI-H2342					0.508	0.457	0.612	0.532	0.536	0.569	0.653	0.61	0.513	0.786	0.707	0.631	0.668
SK-MES-1	0.464	0.484	0.51	0.471					0.588	0.649	0.714	0.341	0.13	0.839	0.874	0.819	0.796
NCI-H2228	1.14	1.75	1.52	1.12					0.529	0.574	0.867	0.138	0.163	0.173	0.221	0.163	0.17
